According to US5641780A, “Pyrrolo-indole derivatives” (priority 1994, dated 1997):
Like-named read-outs stand apart in the source and are kept apart here.

Tests used:
Sarcoma 180 tumor = assay: Therapeutic Effect on Sarcoma 180 Tumor; type: in vivo, male ddY-strain mice; details: determined seven days after implantation
Experimental: Five male ddY-strain mice each weighing 18-20 g were used for each group as test animals, and 5×10^5 Sarcoma 180 tumor cells were implantedat the axilla subcutaneously. One day after the implantation, 0.2 ml of a physiological saline containing Compound (I) at the concentration shown in Table 3 was intravenously administered to each mouse. T/C [T: average tumor volume (mm^3) of the group treated with the test compound, C: average tumor volume (mm^3) of the control group (to which 0.2 ml of a physiological saline was intravenously administered)] was determined seven days after the implantation.

HeLaS3 cells = assay: Growth Inhibitory Effect Against HeLaS3 cells; type: cell-based
Experimental: HeLaS3 cells were suspended in MEM medium containing 10% fetal calf serum and 2 mM glutamine to a concentration of 2.67×10^4 cells/ml. The cell suspension thus prepared was put into wells of a 24-well culture plate in an amount of 0.75 ml per well. After the cells were incubated in a CO2 incubator overnight at 37° C., Compound (I) which had been appropriately diluted with a culture medium was added to each well in an amount of 0.25 ml.
The cells were further incubated in the CO2 incubator for 72 hours, and the culture supernatant was removed. Then, the cells were dispersed in a solution of trypsin and EDTA, and recovered. The number of the cells was counted using a cell counter. The concentration of Compound (I) at which the growth of the cells is inhibited by 50% was calculated by comparing the number of untreated cells with the number of the cells treated with Compound (I) at known concentrations, and the value was defined as IC50.

ddY-strain male mice = assay: Acute toxicity (minimum lethal dose); type: in vivo; details: intravenous, mortality at 14 days after administration
Experimental: Compound (I) was intravenously administered to ddY-strain male mice each weighing 20±1 g. MLD (minimum lethal dose) was determined by observing the mortality at 14 days after administration.

various bacteria = details: cited from earlier work
melanoma B-16 = details: cited from earlier work
[1] = Mus musculus, Sarcoma-180, 168 h, dose 2.0 mg/kg, intravenous, one day after implantation, read-out: T/C (average tumor volume treated / control)
[2] = Homo sapiens, HeLa S3, 72 hours, 37° C., cell counter, read-out: IC50, growth inhibition of HeLaS3 cells
[3] = Mus musculus, Sarcoma-180, iv, 168 h, read-out: T/C (average tumor volume treated / control), dose 2.0 mg/kg, intravenous, one day after implantation
[4] = Homo sapiens, HeLa S3, 72 h, read-out: IC50, growth inhibition of HeLaS3 cells, 72 hours, 37° C., cell counter

Row | Compound | MLD (minimum lethal dose) (ddY-strain male mice) | response vs control in vivo at 2 mg/kg (Sarcoma 180 tumor; [3]) | IC50 (HeLaS3 cells; [4]) | further results
1 | COC(=O)c1c(C)[nH]c2c(OC(=O)c3cccc(N(C)C)c3)cc3c(c12)C(CBr)CN3C(=O)/C=C/c1ccc(OC)cc1 (centres unmarked) [Compound 24] |  |  |  | response vs control in vivo at 2 mg/kg (Sarcoma 180 tumor; [1]): 31%; IC50 (HeLaS3 cells; [2]): 0.43 nM
2 | CCN(CC)c1ccc(C(=O)Oc2cc3c(c4c(C(=O)OC)c(C)[nH]c24)C(CBr)CN3C(=O)/C=C/c2ccc(OC)cc2)cc1 (centres unmarked) [Compound 25] | 2.0 mg/kg | 14% | 13 nM | 
3 | COC(=O)c1c(C)[nH]c2c(OC(=O)c3ccc(-n4cccc4)cc3)cc3c(c12)C(CBr)CN3C(=O)/C=C/c1ccc(OC)cc1 (centres unmarked) [Compound 26] | 2.0 mg/kg | 15% | 1.7 nM | 
4 | COC(=O)c1c(C)[nH]c2c(OC(=O)c3ccc(CN4CCN(C)CC4)cc3)cc3c(c12)C(CBr)CN3C(=O)/C=C/c1ccc(OC)cc1 (centres unmarked) [Compound 28] | 2.0 mg/kg | 21% | 0.83 nM | 
5 | COC(=O)c1c(C)[nH]c2c(OC(=O)NN(C)C)cc3c(c12)C(CBr)CN3C(=O)/C=C/c1ccc(OC)cc1 (centres unmarked) [Compound 29] | 2.0 mg/kg |  |  | response vs control in vivo at 2 mg/kg (Sarcoma 180 tumor; [1]): 18%; IC50 (HeLaS3 cells; [2]): 0.43 nM
6 | COC(=O)c1c(C)[nH]c2c(OC(=O)N(C)N)cc3c(c12)C(CBr)CN3C(=O)/C=C/c1ccc(OC)cc1 (centres unmarked) [Compound 30] | 2.0 mg/kg | 22% | 0.94 nM | 
7 | COC(=O)c1c(C)[nH]c2c(OC(=O)NN3CCC(N4CCCCC4)CC3)cc3c(c12)C(CBr)CN3C(=O)/C=C/c1ccc(OC)cc1 (centres unmarked) [Compound 32] | > 8.0 mg/kg |  | 0.8 nM | response vs control in vivo at 8 mg/kg (Sarcoma 180 tumor; Mus musculus, Sarcoma-180, iv, 168 h, read-out: T/C (average tumor volume treated / control), dose 8.0 mg/kg, intravenous, one day after implantation): 10%
8 | COC(=O)c1c(C)[nH]c2c(OC(=O)CSCC(=O)O)cc3c(c12)C(CBr)CN3C(=O)/C=C/c1ccc(OC)cc1 (centres unmarked) [Compound 33] | 2.0 mg/kg | 17% | 0.33 nM | 
9 | COC(=O)c1c(C)[nH]c2c(OC(=O)c3ccc(CNC(=O)OC(C)(C)C)cc3)cc3c(c12)C(CBr)CN3C(=O)/C=C/c1ccc(OC)cc1 (centres unmarked) [Compound 34] |  |  |  | response vs control in vivo at 2 mg/kg (Sarcoma 180 tumor; [1]): 28%; IC50 (HeLaS3 cells; [2]): 0.52 nM
10 | COC(=O)c1c(C)[nH]c2c(OC(=O)c3ccc(CN)cc3)cc3c(c12)C(CBr)CN3C(=O)/C=C/c1ccc(OC)cc1 (centres unmarked) [Compound 36] |  |  |  | response vs control in vivo at 4 mg/kg (Sarcoma 180 tumor; Mus musculus, Sarcoma-180, 168 h, dose 4.0 mg/kg, intravenous, one day after implantation, read-out: T/C (average tumor volume treated / control)): 35%; IC50 (HeLaS3 cells; [2]): 1 nM
11 | COC(=O)c1c(C)[nH]c2c(OC(=O)NN3CCN(C)CC3)cc3c(c12)C(CBr)CN3C(=O)/C=C/c1ccc(OC)cc1 (centres unmarked) [Compound 37] | > 8.0 mg/kg |  |  | T/C (average tumor volume treated / control) (Sarcoma 180 tumor; dose 8.0 mg/kg, intravenous, one day after implantation, 8 mg/kg): 0.27; IC50 (HeLaS3 cells; read-out: IC50, growth inhibition of HeLaS3 cells, 72 hours, 37° C., cell counter): 0.91 nM
12 | CNN(C)C(=O)Oc1cc2c(c3c(C(=O)OC)c(C)[nH]c13)C(CBr)CN2C(=O)/C=C/c1ccc(OC)cc1 (centres unmarked) [Compound 38] | 4.0 mg/kg |  | 1.5 nM | response vs control in vivo at 4 mg/kg (Sarcoma 180 tumor; Mus musculus, Sarcoma-180, iv, 168 h, read-out: T/C (average tumor volume treated / control), dose 4.0 mg/kg, intravenous, one day after implantation): 14%
13 | COC(=O)c1c(C)[nH]c2c(OC(=O)CN3CCN(C)CC3)cc3c(c12)C(CBr)CN3C(=O)/C=C/c1ccc(OC)cc1 (centres unmarked) [Compound 39] | 4.0 mg/kg |  | 0.36 nM | 
14 | COC(=O)c1c(C)[nH]c2c(OC(=O)CN3CCC(N4CCCCC4)CC3)cc3c(c12)C(CBr)CN3C(=O)/C=C/c1ccc(OC)cc1 (centres unmarked) [Compound 40] | 2.0 mg/kg |  | 0.29 nM | 
15 | COC(=O)c1cc2c([nH]1)C(=O)C=C1N(C(=O)c3cc4cc(OC)c(OC)c(OC)c4[nH]3)CC3CC123 (centres unmarked) [DC113] |  |  |  | antibacterial activity against various bacteria (various bacteria): antibacterial activity against various bacteria; antitumor activity against melanoma B-16 (melanoma B-16): anti-tumor activity against melanoma B-16
16 | COC(=O)[C@]1(C)NC2=C(C1=O)[C@@]13C[C@@H]1CN(C(=O)c1cc4cc(OC)c(OC)c(OC)c4[nH]1)C3=CC2=O [DC-88A] |  |  |  | antibacterial activity against various bacteria (various bacteria): antibacterial activity against various bacteria; antitumor activity against melanoma B-16 (melanoma B-16): anti-tumor activity against melanoma B-16
